Consider 15 molecules from patent US12065427B2, “Heterocyclic compounds capable of activating STING” (BOEHRINGER INGELHEIM INTERNATIONAL GMBH, priority 2021, dated 2024).

Structures are written as SMILES.

Data set [1] deals with Human STING (hSTING, residues 155-341). Kind of data set: Interaction with hSTING as determined by Differential Scanning Fluorimetry (DSF). Type of data set: binding. The note with it: 100 μM test compounds, 5 μM target protein. The method, then: Interaction with hSTING as Determined by Differential Scanning Fluorimetry (DSF)
In DSF, the temperature at which a protein unfolds, also called the melting temperature Tm, is measured by changes in fluorescence of a dye that binds to the hydrophobic parts of the protein. Tm shifts upon binding of a small molecule are correlated with the binding affinity of this small molecule. As target protein, Human STING (hSTING, residues 155-341, MW: 21578.4 Da; protein stock solution: c=1302 μM stock solution in 20 mM Tris, 100 mM NaCl, 2 mM TCEP pH 8.8) was used, as assay buffer 20 mM Tris, 150 mM NaCI pH7.5 was added where and as necessary.
Final concentrations of components in assay: 100 μM test compounds, 5 μM target protein, “5×” SYPR Orange (from stock solution SYPRO orange solution in DMSO (invitrogen cat.-no. S6650-500 ul), concentration “5000×”)
1) Dilutions of compound stock solutions (10 mM in DMSO) were prepared in assay buffer (20 mM Tris, 150 mM NaCl; pH7.5)
2) 5 μl fluorescent dye stock solution (5000×SYPRO Orange in DMSO) was mixed with 19 μl target protein (1302 μM) and 976 μl assay buffer.
3) 2 μl of this protein-dye-mixture (25×SYPRO Orange and 25 μM Protein) was added to 8 μl diluted compound solution as prepared in step 1. Final volume was 10 μl.
4) With every 20 compounds, two negative controls were measured.
5) The plates were prepared for duplicate measurement and centrifuged for 2 min at 1000 g.
6) For the measurement, a CFX384 Real-Time System (Bio-Rad) was used. The run consisted of 140 cycles with 0.5° C./cycle (temperature ramp 15 s/cycle, 25° C. to 95° C.).
Data analysis: The melting curves were processed in Bio-Rad CFX Manager. Peak type was set to “negative”. Two replicates of TM (melting temperature) measurements were averaged and the standard deviation was calculated.
(In DSF a fluorescence change marks the thermal transition of the protein.)

Another data set concerns the target T1, STING HAQ-variant (Homo sapiens, UniProt Q86WV6, G230A/H232R/R293Q/R71H).
T1 construct: parental THP1-Blue™ ISG cell lines (which express endogenously HAQ); host or cells: THP1-Blue ISG (parental, endogenous HAQ) or STING-KO clone re-transduced with HAQ (MSCV-ires-GFP-Blasti)
Kind of data set: IRF-inducible SEAP reporter assay in THP1-Blue ISG cells, STING HAQ-variant. The class given is cell-based. The note with it: STING HAQ-variant (parental or re-introduced), 24 hours incubation. The text has this:
In Vitro Cytokine Induction Measured Via Activation of an Interferon Regulatory Factor Inducible Reporter Gene
Activation of the STING protein expressed in cell lines results in an increase of interferon production. By the stable integration of an interferon regulatory factor (IRF)-inducible SEAP gene (secreted embryonic alkaline phosphatase) reporter construct the functional interferon signaling pathway can be monitored. Using Invivogen's THP1-Blue™ ISG colorimetric enzyme assay and a suitable optical density (OD) reader the activity of SEAP can be detected and quantified. This technique could be used to characterize pharmacological modification of the STING pathway.
Several single nucleotide polymorphisms have been identified in the human STING gene. To determine the activity of the above described compounds, THP1-Blue™ ISG reporter cell lines expressing the different human STING variants have been generated. To do so, the endogenous human STING was first deleted using the CRISPR/CAS9 system: THP1-Blue ISG cells were electroporated with ALL-IN-ONE CRISPR plasmids targeting the STING gene (purchased from Sigma encoding the gRNA and GFP as a reporter gene for successful transduction). GFP positive cells then were sorted 24 h post transfection and expanded. Cells were then dispersed in semisolid methocel medium to allow single cell clone isolations. Clones were then screened for cGAMP responsiveness using the Quanti-Blue™ reporter assay. Non-responsive clones were subsequently analysed for STING loss by western blotting and sequencing of the STING locus.
For the overexpression of the human STING variants, a confirmed THP1-Blue™ ISG hSTING KO clone was transduced with individual retroviral plasmids (MSCV-ires-GFP-Blasti) encoding the allelic variants of hSTING (WT (H232R), HAQ, R232H, AQ and R293Q). Transduced cells were sorted for different levels of GFP fluorescence and STING allele expression was analysed by western blot.
Measurements of SEAP activity were performed in THP1-Blue™ ISG cells stably expressing the different human STING isoforms and the IRF-inducible SEAP reporter construct. Cells were cultivated in RPMI1640 medium with 10% fetal calf serum, 50 μg/ml Penicillin-Streptomycin, 100 μg/ml Zeocin, and 100 μg/ml Normocin in a 37°, 95% humidity and 5% CO2 incubator.
In preparation for the assay, the cells were distributed into the assay plates with a density of 10000 cells/15 μL per well. Compounds were prepared by an 8 point serial dilution in 50% aqueous DMSO and a final dilution step into medium to ensure a final DMSO concentration of 0.5% in the assay. 5 μL of diluted compounds were added to the plates, followed by a 24 hours incubation at 37° C.
At the day of the assay, 75 μl per well of Quanti-Blue™ reagent was added to all wells of the plate and the plate was incubated another 30 minutes at 37° C. The OD at 620 nm was measured on the EnVision reader (PerkinElmer).
EC50 values and Hill slopes were derived from 8-point four parametric non-linear curve fittings with the Megalab software (Boehringer Ingelheim) using the OD at 620 nm.
Data of EC50 values can be found in tables 2a-2e.
Data of EC50 values on STING HAQ-variant can be found in table 2a. Shown data below were either derived from the parental THP1-Blue™ ISG cell lines (which express endogenously HAQ) or from genetically engineered THP1-Blue™ ISG cell lines in which first STING has been knocked-out and the HAQ specific STING isoform has been re-introduced as described above.

The nature of the next data set: in vitro. Conditions: human, Caco-2, pH 7.4.

The EC50 is the concentration at which the effect is half-maximal. What is called Papp A→B is how fast a substance crosses the layer from the apical side. Low values mean poor permeation, high ones ready permeation. In general, efflux ratio refers to the permeability from basolateral to apical divided by that in the opposite direction, in the common usage.

T1 sequence (Q86WV6 whole entry R71H/G230A/H232R/R293Q): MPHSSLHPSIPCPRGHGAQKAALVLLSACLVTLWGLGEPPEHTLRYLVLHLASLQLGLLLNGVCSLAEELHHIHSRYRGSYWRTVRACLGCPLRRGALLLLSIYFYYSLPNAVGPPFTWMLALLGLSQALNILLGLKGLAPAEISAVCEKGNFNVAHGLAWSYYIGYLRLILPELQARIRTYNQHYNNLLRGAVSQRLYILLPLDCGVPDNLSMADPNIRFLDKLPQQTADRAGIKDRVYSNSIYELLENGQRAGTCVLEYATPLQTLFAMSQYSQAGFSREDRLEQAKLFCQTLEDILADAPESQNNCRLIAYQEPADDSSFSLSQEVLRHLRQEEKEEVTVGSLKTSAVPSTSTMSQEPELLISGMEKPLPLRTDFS
Protocol for in vitro: Cellular Permeability Measurements
Caco-2 cells were obtained from Leibniz Institute DSMZ-German Collection of Microorganisms and Cell Cultures (Braunschweig, Germany) and cultured in DMEM (Dulbecco's modified Eagle medium) containing (in final concentrations) 10% FCS (fetal calf serum), 1% NEAA (non-essential amino acids), 2 mM Glutamin, 100 U/mL Penicillin and 100 μg/mL Streptomycin. Caco-2 cells were seeded either onto 24-well Transwell inserts (Corning, #3379) for bidirectional permeability assays at a density of 160,000 cells/cm^2 and cultured for 3 weeks, with media change on every second day.
For bidirectional permeability assays 10 mM DMSO stock solutions were diluted in transport buffer (final concentrations: 128.13 mM NaCl, 5.36 mM KCl, 1 mM MgSO4, 1.8 mM CaCl2, 4.17 mM NaHCO3, 1.19 mM Na2HPO4, 0.41 mM NaH2PO4, 15 mM 2-[4-(2-hydroxyethyl)piperazin-1-yl]ethanesulfonic acid (HEPES), 20 mM glucose, pH 7.4) containing 0.25% bovine serum albumin to a final concentration of 10 μM of the test compounds and added to the apical or basal compartment. Cells were incubated with the compounds for up to 2 h. Samples from the opposite compartment were taken at different timepoints.
Compound concentrations in the compartments were quantified using a RapidFire-based high-throughput HPLC/MS/MS system (high performance liquid chromatography/mass spectrometry; Bio-Cius) that was customized to a fully automated and flexible platform, termed RIAS. In this modified setup, the sample was aspirated by a vacuum pump into a 10 μL sample loop for 250 ms and flushed onto a C4 cartridge (3.8 μL bed volume; Bio-Cius) with the aqueous mobile phase (99.9% water, 0.09% formic acid, and 0.01% TFA; flow rate 1.5 mL/min). Prior to bioanalysis samples were spiked with internal standard solution and diluted with acetonitrile (ACN) for protein precipitation. Measurement was operated in multiplereaction monitoring (MRM) mode. Quantification was performed using external calibration. A solid-phase extraction step retained the analyte for 3000 ms while interfering matrix (e.g., buffer components) was removed. With a simple step gradient, the analyte was back-eluted from the cartridge for 3,000 ms with the organic mobile phase (99.9% acetonitrile/methanol [1:1, v:v], 0.09% formic acid, and 0.01% TFA) and flushed into the mass spectrometer at a flow rate of 1.25 mL/min. Afterwards, the cartridge was re-equilibrated with the aqueous mobile phase for 500 ms (flow rate 1.5 mL/min).
Apparent permeability coefficients in the apical to basal direction (Papp,AB) and in the basal to apical direction (Papp,BA) and efflux ratios were calculated as follows: Papp,AB=QAB/(C0·s·t) Papp,BA=QBA/(C0·s·t) Efflux ratio=Papp,BA/Papp,AB
where Q is the amount of compound recovered in the receiver compartment after the incubation time t, C0 the initial compound concentration given to the donor compartment, and s the surface area of the Transwell inserts. […] In addition, transepithelial electrical resistance (TEER) values are measured for each plate before the permeability assay, and total recovery in donor and receiver compartments was determined for each compound.

For `Cc1cccc2c(-c3cccc4nn(C)cc34)nn(-c3ccc(N4CC5(CCS(=O)(=O)CC5)C4)nc3)c12` [compound 4, 2-(5-{2′,7-dimethyl-1H,2′H-[3,4′-biindazol]-1-yl}pyri-din-2-yl)-7λ^6-thia-2-azaspiro[3.5]nonane-7,7-dione], in data set [1], the “thermal shift (ΔTm)” value is listed as 20 K. The EC50 at STING HAQ-variant turned out to be 1.1 µM.
`COC(=O)c1ccc2c(-c3cccc4nn(C)cc34)nn(-c3ccc(N4CCC(S(C)(=O)=O)CC4)nc3)c2c1C` [compound 25, methyl 1-[6-(4-meth-anesulfonylpiperidin-1-yl)pyridin-3-yl]-2′,7-di-methyl-1H,2′H-[3,4′-biindazole]-6-carboxylate]: the “thermal shift (ΔTm)” value in data set [1] was 25 K. In addition, the EC50 on STING HAQ-variant turned out to be 0.2 µM.
Turning to `CC(=O)N(C)C1CCN(c2ccc(-n3nc(-c4cccc5nn(C)cc45)c4cccc(C)c43)cn2)C1` (stereo not shown) [Example #6, N-[1-(5-{2′,7-dimethyl-1H,2′H-[3,4′-biindazol]-1-yl}pyridin-2-yl)pyrrolidin-3-yl]-N-methylacetamide], in the data set “in vitro”, the apparent permeability from apical to basolateral (Papp A→B) at 10 μM was determined as 39 ×10⁻⁶ cm/s and the efflux ratio at 10 μM stood at 0.4. For the same molecule, in data set [1], the “thermal shift (ΔTm)” value is listed as 22 K. Further, the EC50 on STING HAQ-variant was determined as 3.1 µM.
Take `Cc1cccc2c(-c3cccc4nn(C)cc34)nn(-c3ccc(-c4ccc(S(C)(=O)=O)cc4)nc3)c12` [compound 73, 1-[6-(4-methanesulfonylphenyl)pyridin-3-yl]-2′,7-dimethyl-1H,2′H-3,4′-biindazole]: the efflux ratio at 10 μM in “in vitro” amounted to 0.5. Also, on STING HAQ-variant, the EC50 came out at 4.4 µM.
For the molecule `Cc1cccc2c(-c3cccc4nn(C)cc34)nn(-c3ccc(N4CCC(N5CCCC5=O)CC4)nc3)c12` [compound 21, 1-[1-(5-{2′,7-dimethyl-1H,2′H-[3,4′-biindazol]-1-yl}pyridin-2-yl)piperidin-4-yl]pyrrolidin-2-one], in “in vitro”, the Papp A→B at 10 μM amounted to 23 ×10⁻⁶ cm/s and the efflux ratio at 10 μM came to 0.3. In addition, the “thermal shift (ΔTm)” value in data set [1] is given as 20 K. For the same molecule, the EC50 at STING HAQ-variant turned out to be 4.7 µM.
For `C#Cc1cccc2c(-c3cccc4nn(C)cc34)nn(-c3ccc(N4CC5C(C4)C5C(=O)O)nc3)c12` (stereo not shown) [Example #74, 3-(5-{7-ethynyl-2′-methyl-1H,2′H-[3,4′-biindazol]-1-yl}pyridin-2-yl)-3-azabicyclo[3.1.0]hexane-6-carboxylic acid], in data set [1], the “thermal shift (ΔTm)” value is listed as 16 K. Moreover, the EC50 at STING HAQ-variant worked out at 4.3 µM.
As to `CCOC(=O)C1CCN(c2ccc(-n3nc(-c4cccc5nn(C)cc45)c4cccc(C)c43)cn2)CC1` [compound 31, ethyl 1-(5-{2′,7-dimethyl-1H,2′H-[3,4′-biindazol]-1-yl}pyridin-2-yl)piperidine-4-carboxylate], the efflux ratio at 10 μM in the data set “in vitro” came to 0.6. Moreover, the EC50 on STING HAQ-variant turned out to be 5.4 µM.
Turning to `Cc1cccc2c(-c3cccc4nn(C)cc34)nn(-c3ccc(N4CC5CC4CO5)nc3)c12` (stereo not shown) [compound 11, 2′,7-dimethyl-1-(6-{2-oxa-5-azabicyclo[2.2.1]heptan-5-yl}pyridin-3-yl)-1H,2′H-3,4′-biindazole], in the data set “in vitro”, the Papp A→B at 10 μM was determined as 27 ×10⁻⁶ cm/s and the efflux ratio at 10 μM was 0.3. Besides, in data set [1], the “thermal shift (ΔTm)” value was 21 K. Moreover, at STING HAQ-variant, the concentration for a half-maximal effect (EC50) came out at 3.2 µM.
Take `Cc1cccc2c(-c3cccc4nn(C)cc34)nn(-c3ccc(N4CCC(c5cnn(C)c5)CC4)nc3)c12` [compound 20, 2′,7-dimethyl-1-{6-[4-(1-methyl-1H-pyrazol-4-yl)pi-peridin-1-yl]pyridin-3-yl}-1H,2′H-3,4′-biindazole]: the efflux ratio at 10 μM in “in vitro” was determined as 0.8. Further, the “thermal shift (ΔTm)” value in data set [1] was determined as 20 K. Besides, the EC50 at STING HAQ-variant was 2.2 µM.
Consider `Cc1cccc2c(-c3cccc4nn(C)cc34)nn(-c3ccc(N4CCCNCC4)nc3)c12` [compound 45, 1-(6-(1,4-diazepan-1-yl)pyridin-3-yl)-2′,7-dimethyl-1H,2′H-3,4′-biindazole], for which the “thermal shift (ΔTm)” value in data set [1] was 19 K. Further, the EC50 at STING HAQ-variant amounted to 1.9 µM.
Regarding `Cc1cccc2c(-c3cccc4nn(C)cc34)nn(-c3ccc(N4CCCN(C=O)CC4)nc3)c12` [compound 52, 4-(5-{2′,7-dimethyl-1H,2′H-[3,4′-biindazol]-1-yl}pyridin-2-yl)-1,4-di-azepane-1-carbalde-hyde], in “in vitro”, the efflux ratio at 10 μM was 0.4. Moreover, the “thermal shift (ΔTm)” value in data set [1] amounted to 21 K. On STING HAQ-variant, the EC50 came to 1.9 µM.
Consider `Cc1cccc2c(-c3cccn4nccc34)nn(-c3ccc(N4CCC(C(=O)O)CC4)nc3)c12` [compound 60, 1-[5-(7-methyl-3-{pyra-zolo[1,5-a]pyridin-4-yl}-1H-indazol-1-yl)pyridin-2-yl]piperidine-4-carboxylic acid], for which, in “in vitro”, the Papp A→B at 10 μM amounted to 19 ×10⁻⁶ cm/s and the efflux ratio at 10 μM was 0.9. Moreover, the EC50 at STING HAQ-variant was 6.6 µM.
Take `Cc1cccc2c(-c3cccc4nn(C)cc34)nn(-c3ccc(N4CCC(C)(C(=O)O)CC4)nc3)c12` [compound 27, 1-(5-{2′,7-dimethyl-1H,2′H-[3,4′-biindazol]-1-yl}pyri-din-2-yl)-4-methylpiperi-dine-4-carboxylic acid]: in the data set “in vitro”, the Papp A→B at 10 μM is 32 ×10⁻⁶ cm/s and the efflux ratio at 10 μM worked out at 0.5. Further, the “thermal shift (ΔTm)” value in data set [1] turned out to be 22 K. The EC50 at STING HAQ-variant amounted to 5.2 µM.
Turning to `COCCNc1ccc(-n2nc(-c3cccc4nn(C)cc34)c3cccc(C)c32)cn1` [compound 14, 5-{2′,7-dimethyl-1H,2′H-[3,4′-biindazol]-1-yl}-N-(2-methoxyethyl)pyridin-2-amine], in “in vitro”, the Papp A→B at 10 μM was 39 ×10⁻⁶ cm/s and the efflux ratio at 10 μM is 0.3. Besides, the “thermal shift (ΔTm)” value in data set [1] stood at 18 K. Besides, the EC50 on STING HAQ-variant was determined as 6.9 µM.
Turning to `Cc1cccc2c(-c3cccc4nn(C)cc34)nn(-c3ccc(N4CCN5C(=O)OCC5C4)nc3)c12` (stereo not shown) [compound 8, 7-(5-{2′,7-dimethyl-1H,2′H-[3,4′-biindazol]-1-yl}pyri-din-2-yl)-hexahydro-1H-[1,3]oxazolo[3,4-a]pyrazin-3-one], the “thermal shift (ΔTm)” value in data set [1] was 21 K. The concentration for a half-maximal effect (EC50) at STING HAQ-variant was 1.2 µM.
